Assay results: patent US11510964B2, “Macrocyclic peptides to decrease c-Myc protein levels and reduce cancer cell growth” (University of Kansas, priority 2017, dated 2022)
Non-standard residues stand in square brackets, D forms with d. Residues, ends and D or L forms follow the SMILES beside them.

Legend:
[1] = mice, after systemic administration; cited from earlier work
[2] = cited from earlier work
[3] = mice, dose of 60 mg/kg; cited from earlier work
PC-3 cells = type: cell-based, human; conditions: 48 h, read-out: IC50, cell growth
Protocol: Human prostate cancer PC-3 cells were cultured and maintained in EMEM (ATCC), non-prostate HEK (human embryonic kidney) cells were cultured in DMEM, human prostate cancer DU145, LNCaP, 22Rv1 cells were cultured in RPMI 1640 (ATCC), and normal BPH-1 prostate cells and prostate cancer C4-2 cell line were cultured in RPMI 1640 (ATCC), all containing 10% fetal bovine serum (Atlanta Biologicals) and 1% penicillin/streptomycin (Invitrogen). Cells were grown at 37° C. in humidified air with 5% CO2 and passaged every fourth to fifth day following trypsinization with trypsin/EDTA (Invitrogen).^16
PC-3, LNCaP, DU 145, 22Rv1, C4-2, BPH-1, and HEK cells were grown to a density of 2000 cells/well in 96 well plates and treated with [D-Trp]CJ-15,208 or other peptides for 24-72 h in duplicate. Media containing [D-Trp]CJ-15,208 was changed every 24 h. The proliferation of treated cells was determined using the cell proliferation reagent WST-1 (Roche) per the manufacturer's instructions and compared to […] control cells in 1% DMSO in media. After treatment with compound 10 μL of the reagent was added to the well in 100 μL culture media, and the cells incubated at 37° C. for 30 min. The absorbance of the media in each well was measured at […] using a plate reader (BioTek). The percentage cell proliferation was normalized to vehicle treated control cells calculated as: (mean absorbance of sample/mean absorbance of control cells)×100.^38
Each experiment was performed in triplicate unless otherwise stated in the figure legend. GraphPad Prism 5 was used to determine IC50 values. Data represent the mean value+/−SEM. Compound vs. vehicle treated cells in the cell cycle phase and apoptosis experiments (FIGS. 5-8) were compared using the student's t-test, with a two-tailed, unpaired method, using the Prism software. The effects of compound vs. vehicle treatment on protein levels (FIG. 10) were evaluated by one-way ANOVA with Dunnett's test for multiple comparisons.

[4] = tested on: c-Myc protein levels in PC-3 cells; test: Western blot analysis of cellular c-Myc protein levels; type: cell-based, human
Protocol: Cells were seeded in 6 well plates at a density of 1×10^5 cells/well and grown to 75% confluence. Cells were treated with [D-Trp]CJ-15,208 at the indicated concentrations. Cells were then harvested as described above, and the cell pellets lysed in RIPA buffer consisting of 10 mM Tris HCl, pH 8.0, 150 mM NaCl, 1 mM EDTA, 1% Triton-X-100, 0.1% SDS, 1% sodium deoxycholate, and a protease inhibitor cocktail #P8340 (Sigma). Cell lysates were centrifuged at 13×1000 rpm for 15 min and the supernatants collected. The total protein concentration was measured in cell lysates using the standard Bradford assay. SDS gel electrophoresis was performed using 4-20% polyacrylamide gel (BioRad). Western blot analysis was performed using the following antibodies: i) c-Myc #5605 (rabbit monoclonal, 1:2000 dilution, (Cell Signaling Technologies)); actin #A2228 (mouse monoclonal, 1:5000 dilution (Sigma)), PP2A #610555 (mouse monoclonal 1:5000 dilution, BD Biosciences), p-PP2A #1155-1 (rabbit polyclonal, 1:5000 dilution (Epitomics)), Erk #9107 (mouse monoclonal, 1:2000 dilution (Cell Signaling Technologies) and p-Erk #4376 (rabbit monoclonal, 1:2000 (Cell Signaling Technologies)); Akt #2920 (mouse monoclonal, 1:2000 dilution (Cell Signaling Technologies)), p-Akt #4056 (rabbit monoclonal, 1:2000 (Cell Signaling Technologies)). The secondary antibodies, goat-anti-mouse #116-035-003 and goat-anti-rabbit #111-035-003, were obtained from Jackson ImmunoResearch Laboratory. Signal densities of the protein bands were determined using ImageJ software (NIH) and normalized to the internal loading control (actin).

O=C1N[C@@H](Cc2ccccc2)C(=O)N2CCC[C@@H]2C(=O)N[C@@H](Cc2ccccc2)C(=O)N[C@H]1Cc1c[nH]c2ccccc12 [CJ-15,208, cyclo[Phe-D-Pro-Phe-Trp]] (cyclo(FWF[dP]))
blood-brain barrier penetration [1]: appear to penetrate the blood-brain barrier | activity after oral administration [2]: active after oral administration | toxicity [3]: no evidence of toxicity | IC50 (PC-3 cells): 10.1 ± 0.9 µM | decrease of cellular c-Myc protein levels ([4]; 50 μM (FIG. 1E lanes 4 and 5)): 5 fold | reduction of c-Myc protein levels ([4]; PC-3 cells, 10 μM, 48 h): approximately 50%

dynorphin A-(1-13) (YGGFLRRIRPKP) [reference compound]
effect on cellular c-Myc protein levels ([4]; 1 μM (FIG. 1E lane 2)): not decreased

CC[C@H](C)[C@@H]1NC(=O)[C@H](CCCNC(=N)N)NC(=O)[C@@H](NC(=O)[C@H](Cc2ccccc2)NC(=O)CNC(=O)CNC(=O)[C@H](Cc2ccc(O)cc2)NCc2ccccc2)CC(=O)NC[C@@H](C(=O)N[C@@H](CCCNC(=N)N)C(=O)N2CCC[C@H]2C(=O)N[C@@H](CCCCN)C(N)=O)NC1=O [zyklophin, reference compound]
effect on cellular c-Myc protein levels ([4]; 10 μM (FIG. 1E lane 3)): not decreased

C=CCN1CC[C@]23c4c5ccc(O)c4O[C@H]2C(=O)CC[C@@]3(O)[C@H]1C5 [naloxone, reference compound]
effect on the decrease in c-Myc protein levels caused by [D-Trp]CJ-15,208 ([4]; PC-3 cells, 10 μM naloxone with 10 μM [D-Trp]CJ-15,208 (FIG. 1F lane 4 vs. lane 2)): did not alter the decrease | effect on c-Myc protein levels ([4]; PC-3 cells, 10 μM, 48 h (FIG. 1F lane 3)): no effect
